Data as given in paper PMC10488193, “Evaluation of the Chemical Stability, Membrane Permeability and Antiproliferative Activity of Cyclic Diarylheptanoids from European Hornbeam (Carpinus betulus L.)” (International Journal of Molecular Sciences, 2023).
Entries after “also recorded” stand apart in the source; their conditions may differ. Marks after values point to notes of the source that are not given here.

Tests used:
[1] = test system: HT-29 (colorectal carcinoma); experiment: In vitro antiproliferative activity, Alamar Blue assay; format: cell-based; details: Homo sapiens; HT-29, 24 h treatment, then three days culture, n = 2; read-out: IC50 ± SD
Description: (§1) For the experiments, the following human cell lines were used: A2058 (melanoma, derived from metastatic site: lymph node), HepG2 (hepatocellular carcinoma), U87 (glioblastoma), HT-29 (colorectal carcinoma) and HL-60 (acute promyelocytic leukaemia). Cell lines were generous gifts from Dr. […] (Department of Experimental Pharmacology, National Institute of Oncology, Budapest, Hungary). […] The cultures were maintained at 37 °C in a humidified atmosphere with 5% CO2. The cells were grown to confluency and then divided into 96-well tissue culture plates (Sarstedt, Nümbrecht, Germany) with an initial cell number of 5000 cells/well. Cells were incubated at 37 °C in a 5% CO2 humidified atmosphere overnight. Before the assay, 50 μL of the supernatant was removed and replaced with a 50 μL serum-free medium (SFM). […] The cells were treated for 24 h with the compounds and negative control cells (no compound control) were treated with SFM only (incubated at 37 °C). […] The percentage of cytostasis was calculated with the following equation: […] Data were evaluated with Excel (version: 365; Microsoft, Redmond, WA, USA) and the curves were defined using Microcal OriginPro (version: 2018; OriginLab, Northampton, MA, USA) software. In each case, two independent experiments were carried out with four parallel measurements and the mean IC50 values together with ±SD were represented. The Excel (version: 365) (Microsoft, Redmond, WA, USA) and Microcal OriginPro (version: 2018) (OriginLab, Northampton, MA, USA) softwares were used for data evaluation.

[2] = test system: HepG2 (hepatocellular carcinoma); experiment: as above; format: cell-based; details: Homo sapiens; HepG2, 24 h treatment, then three days culture, n = 2; read-out: IC50 ± SD
Description: as §1

[3] = test system: A2058 (melanoma, derived from metastatic site: lymph node); experiment: as above; format: cell-based; details: Homo sapiens; A2058, 24 h treatment, then three days culture, n = 2; read-out: IC50 ± SD
Description: as §1

[4] = test system: HL-60 (acute promyelocytic leukaemia); experiment: as above; format: cell-based; details: Homo sapiens; HL-60, 24 h treatment, then three days culture, n = 2; read-out: IC50 ± SD
Description: as §1

U87 (glioblastoma) = experiment: as above; format: cell-based; details: Homo sapiens; U87, 24 h treatment, then three days culture, n = 2; read-out: IC50 ± SD
Description: as §1

[5] = Storage stability in solutions and hornbeam bark extracts (UHPLC-DAD); format: physicochemical
Description: For the analysis of the samples from the chemical stability as well as the PAMPA studies, sample concentrations were determined using our previously developed ultrahigh-performance liquid chromatography–diode array detection (UHPLC-DAD) method validated for linearity, precision and accuracy. Briefly, an ACQUITY UPLC H-Class PLUS System hyphenated with a quaternary solvent delivery pump (QSM), an auto-sampler manager (FTN), a column compartment (CM) and a photodiode array (PDA) detector (Waters Corporation) was employed. Stationary phase: Acquity BEH C18 column (100 × 2.1 mm i.d., 1.7 µm; Waters Corporation), column temperature: 30 °C. The mobile phase consisted of 0.3% acetic acid in water (eluent A) and acetonitrile (eluent B). The following gradient elution was applied at a flow rate of 0.3 mL/min: 0 min 12.0% B, 19.0 min 13.5% B, 25.5 min 75.0% B, 26.0 min 100.0% B, 28.0 min 100.0% B, 28.5 min 12.0% B.
We used the following equations to calculate the first-order reaction rate constant (k) and the half-life (t1/2) indicating the time required to reduce the concentration of diarylheptanoids by 50% [29]:ln (ct/c0) = −k × t(1) t1/2 = −ln 0.5 × k^−1(2) where ct is the concentration of the diarylheptanoids at time t, c0 is the initial concentration, k is the reaction rate constant, t is the treatment time.
The chemical stability of the isolated compounds in solutions was examined at a concentration of 50 µg/mL in methanol and water (in the latter case using methanol as co-solvent, final composition: water-methanol 90:10, v/v). Furthermore, the methanol and ethyl acetate extracts of C. betulus bark (concentration 4 mg/mL) were also studied in order to assess the effects of the accompanying substances. The storage stability studies were performed at a neutral pH value. All solutions were filtered through Phenex-RC 15 mm, 0.2 μm syringe filters (Gen-Lab Ltd., Budapest, Hungary). The samples were prepared in triplicate and stored protected from light at 22 ± 2.0 °C, 5 ± 1.5 °C and −15 ± 2.0 °C for 23 weeks. Quantities of the analytes of interest were quantified at weeks 12 and 23 using the abovementioned UHPLC-DAD method (see Section 3.4).
The effects of the temperature and the medium (i.e., solvent and accompanying substances) were analysed through one-way analysis of variance (ANOVA) followed by Tukey’s post hoc HSD test (p < 0.05). To establish the kinetic parameters t1/2 and k, Equations (1) and (2) were applied, respectively.

IC50 [1]: > 100 µM | IC50 [2]: > 100 µM | IC50 [3]: > 100 µM | IC50 [4]: > 100 µM | IC50 (U87 (glioblastoma)): > 100 µM | concentration as compared to the initial value ([5]; 12 weeks, 5 °C, EE (ethyl acetate extract of bark)): 102.0 ± 1.7% | concentration as compared to the initial value ([5]; 12 weeks, 5 °C, EM (methanol extract of bark)): 105.5 ± 2.5% | concentration as compared to the initial value ([5]; 12 weeks, 5 °C, SA (aqueous solution)): 100.5 ± 0.7 ^ab % | concentration as compared to the initial value ([5]; 12 weeks, 5 °C, SM (methanol solution)): 100.1 ± 0.6 ^ab % | concentration as compared to the initial value ([5]; 12 weeks, 22 °C, EE (ethyl acetate extract of bark)): 106.3 ± 2.6 % | concentration as compared to the initial value ([5]; 12 weeks, 22 °C, EM (methanol extract of bark)): 120.9 ± 2.6 % | concentration as compared to the initial value ([5]; 12 weeks, 22 °C, SA (aqueous solution)): 100.8 ± 1.1 ^a % | concentration as compared to the initial value ([5]; 12 weeks, 22 °C, SM (methanol solution)): 100.1 ± 0.5 ^ab % | concentration as compared to the initial value ([5]; 12 weeks, −15 °C, EE (ethyl acetate extract of bark)): 103.5 ± 0.8% | concentration as compared to the initial value ([5]; 12 weeks, −15 °C, EM (methanol extract of bark)): 102.8 ± 3.3 % | concentration as compared to the initial value ([5]; 12 weeks, −15 °C, SA (aqueous solution)): 98.6 ± 1.3 ^b % | concentration as compared to the initial value ([5]; 12 weeks, −15 °C, SM (methanol solution)): 99.1 ± 0.7 ^ab % | concentration as compared to the initial value ([5]; 23 weeks, 5 °C, EE (ethyl acetate extract of bark)): 107.8 ± 2.6 % | concentration as compared to the initial value ([5]; 23 weeks, 5 °C, EM (methanol extract of bark)): 107.0 ± 4.1% | concentration as compared to the initial value ([5]; 23 weeks, 5 °C, SA (aqueous solution)): 100.0 ± 0.5 ^ab % | concentration as compared to the initial value ([5]; 23 weeks, 5 °C, SM (methanol solution)): 100.3 ± 0.5 ^ab % | concentration as compared to the initial value ([5]; 23 weeks, 22 °C, EE (ethyl acetate extract of bark)): 108.5 ± 2.7 % | concentration as compared to the initial value ([5]; 23 weeks, 22 °C, EM (methanol extract of bark)): 135.7 ± 9.7 % | concentration as compared to the initial value ([5]; 23 weeks, 22 °C, SA (aqueous solution)): 100.3 ± 0.6 ^ab % | concentration as compared to the initial value ([5]; 23 weeks, 22 °C, SM (methanol solution)): 100.2 ± 0.5 ^ab % | concentration as compared to the initial value ([5]; 23 weeks, −15 °C, EE (ethyl acetate extract of bark)): 108.0 ± 2.2 % | concentration as compared to the initial value ([5]; 23 weeks, −15 °C, EM (methanol extract of bark)): 103.6 ± 3.5% | concentration as compared to the initial value ([5]; 23 weeks, −15 °C, SA (aqueous solution)): 99.9 ± 1.2 ^ab % | concentration as compared to the initial value ([5]; 23 weeks, −15 °C, SM (methanol solution)): 99.8 ± 1.2 ^ab % | storage stability in methanol and aqueous solutions (in words) ([5]; SM and SA, −15, 5, 22 °C, weeks 12 and 23): stable; also recorded: good stability
Compound: O=C1CCC(=O)C(O)Cc2ccc(O)c(c2)-c2cc(ccc2O)C1 (stereo not drawn) [Compound 4, 3,12,17-trihydroxytricyclo [12.3.1.1^2,6]nonadeca-1(18),2(19),3,5,14,16-hexaene-8,11-dione]
